{"source": "paper PMC5581131", "about": "“The novel sphingosine-1-phosphate receptors antagonist AD2900 affects lymphocyte activation and inhibits T-cell entry into the lymph nodes” (Oncotarget, 2017)", "key": {"[1]": {"molecular_target": "T1, S1P2 (Homo sapiens, UniProt O95136)", "T1 construct": "expressed in transfected cells; host or cells: S1P2 CRE-bla CHO cells", "T1 sequence (O95136 whole entry)": "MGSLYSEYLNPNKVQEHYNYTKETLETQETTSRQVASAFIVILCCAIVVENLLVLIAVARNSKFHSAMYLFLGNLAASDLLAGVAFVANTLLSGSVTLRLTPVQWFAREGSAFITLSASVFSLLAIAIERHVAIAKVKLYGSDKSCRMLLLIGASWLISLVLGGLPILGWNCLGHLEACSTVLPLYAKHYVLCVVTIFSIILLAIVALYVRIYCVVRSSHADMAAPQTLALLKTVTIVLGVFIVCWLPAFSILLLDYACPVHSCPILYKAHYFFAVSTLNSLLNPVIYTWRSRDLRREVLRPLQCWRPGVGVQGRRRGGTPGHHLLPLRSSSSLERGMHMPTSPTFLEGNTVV", "test": "S1P2 antagonist test, S1P2 CRE-bla CHO cells", "assay_type": "cell-based", "details": "S1P2 CRE-BLA CHO cell line", "description": "Since AD2900 is a sphingolipid analogue with properties that resemble those of S1P, we intended to examine its ability to interact with the S1P receptors. To delineate whether AD2900 can function as an agonistic or antagonistic compound to any of the S1P receptors, we used a high-throughput screening cell-based assay, employing cell lines stably transfected with human S1P receptors 1, 2, 3, 4, or 5 [37]. In this experiment, a compound with an IC50 or EC50 value ≤10 μM for a certain S1P receptor is considered active as an antagonist or an agonist, respectively. The results illustrate that AD2900 acts as an antagonist to all S1P receptors (Table 1, Supplementary Figure 3). […] No agonist activation was evident.\nThe S1P1 agonist test and S1P2, S1P3, S1P4, and S1P5 agonist and antagonist tests were conducted as previously described using S1P1 CRE-bla CHO cells, S1P2 CRE-bla CHO cells, S1P3 NFAT-bla CHO cells, Tango™ S1P4 (EDG6)-bla U-2 OS cells, and Tango™ S1P5 ([…])-bla U-2 OS cells. The S1P1 antagonist assay was carried out according to the manufacturer’s instructions using a Tango™ S1P1 (EDG1)-bla U-2 OS Cell-Based Assay (Invitrogen, NY, USA)."}, "[2]": {"system": "CCR7-expressing PBMCs", "test": "CCR7 surface expression on PBMCs, FACS", "assay_type": "cell-based, human", "details": "100 nM, 30-min treatment", "description": "Figure 3 AD2900 downregulates the percentage of S1P1- and CCR7-expressing cells in PBMCs (A, B) The percentages of S1P1-positive PBMCs after the treatment with different concentrations of AD2900, FTY720, or SEW2871 and at different time points were examined by FACS analysis. S1P1 expression was tested in PBMCs after a 30-min treatment with AD2900 at different concentrations (A) or after a 30-min or 60-min treatment with 100 nM AD2900, FTY720, or SEW2871 (B). (C) The percentage of CCR7-positive PBMCs was tested by FACS analysis after a 30-min treatment with 100 nM AD2900, FTY720, or SEW2871. All the significances are compared to untreated PBMCs. Results summarize the results of at least four independent experiments. Results of Student’s t-test: *(P < 0.05, two-tailed test), ** (P < 0.01, two-tailed test), *** (P < 0.001, two-tailed test), **** (P < 0.0001, two-tailed test).\nCCR7 is known as a lymph node homing receptor, and it is also involved in lymphocyte recirculation. Together with S1P1, CCR7 controls the circulation of lymphocytes between the SLOs and the blood or lymph. We therefore examined the effect of AD2900 on the level of CCR7-surface-expressing PBMCs.\nHuman PBMCs: For the apoptosis test, anti-AnnexinV-FITC (BD Biosciences, CA, USA) was used. […]"}, "[3]": {"system": "C57BL/6 mice", "test": "T-cell subpopulations (naive, Tcm-like, Tef/em-like) in blood, spleen and lymph nodes, FACS", "assay_type": "in vivo, mouse", "description": "We have shown that AD2900 has a unique effect on T-cell distribution in mice. Since T-cell subpopulations such as naïve T cells, central memory T cells (Tcm), and effector/effector memory T cells (Tef/em) have designated roles in the immune response, the influence of AD2900 on the localization of these subpopulations was investigated. The analysis of T-cell subpopulations was performed by FACS using antibodies against commonly accepted surface markers. Some of the molecules that we used as markers are involved in T-cell migration, and their expression can be affected by our treatment. […] Therefore, we refer to the CCR7-CD44+ T-cell population as Tef/em-like cells and to the CCR7+ CD44+ (Figure 6) or CD44+ CD62L+ (Supplementary Figure 4B) T-cell population as Tcm-like cells. The calculated cell number of the different subpopulations in control mice is shown in the left panel of Figure 6.\nFigure 6 AD2900 treatment influences the distribution of mice T-cell populations in the blood, spleen, and peripheral lymph nodes C57BL/6 mice were orally administered with AD2900 or FTY720, as shown in Figure 4. Leukocytes from blood, spleen, and pLNs were collected and stained with TCR-β, CD44, and CCR7 fluorescent antibodies and then analyzed by FACS analysis. The percentages of CCR7+ CD44+ Tcm-like cells (left panel), CCR7-CD44+ Tef/em-like cells (central panel), and CCR7 + CD44-naive T cells (right panel) of the total T-cell population (TCR-β+) in blood (A), spleen (B), and pLNs (C) are shown. All the significances are compared to untreated healthy mice. Results summarize three independent experiments. Results of Student’s t-test:*(P < 0.05, two-tailed test), ** (P < 0.01, two-tailed test), *** (P < 0.001, two-tailed test), **** (P < 0.0001, two-tailed test).\nMurine lymphocytes: The phenotype of murine lymphocytes was analyzed by flow cytometry using anti-CD3e-FITC, anti-CD19-PB, anti-CCR7-APC, anti-CD44-FITC, anti-CD62L-APC, and anti-TCR-β-PB (Biolegend, CA, USA).\nC57BL/6 female mice aged 7–8 weeks were obtained from Harlan Laboratories (Jerusalem, Israel). The animal study was conducted under appropriate conditions and was approved by the Institutional Animal Care and Use Committee of the Hebrew University of Jerusalem in accordance with the national laws and regulations for the protection of animals. AD2900 was dissolved in 10% BSA (MP Biomedicals, CA, USA) in DDW at 1 mg/ml and then further diluted in 200 ml water to get final concentrations at 1.8, 2.7, or 3.6 mg/l. AD2900 and FTY720 were supplied ad libitum to the mice for 2 days or 7 days. At the end of the experiment, blood was collected, and the mice were sacrificed and tissues (lymph nodes and spleen) were harvested."}, "[4]": {"details": "oral, as in Figure 4, % of total T cells"}}, "data": [{"molecule": "CCCCCCCCCCCCCCCCNC(CO)(CO)CO", "note": "[AD2900]", "values": [{"measurement": "IC50", "setting": "[1]", "result": 3.2, "unit": "µM"}, {"measurement": "reduction of the normal percentage of CCR7-expressing cell population", "setting": "[2]", "result": "22% ± 5%"}, {"measurement": "Tcm-like cells in the blood and lymph nodes", "setting": "[3]; compared to control", "result": "significantly downregulated"}, {"measurement": "percentage of Tcm-like cells in the spleen", "setting": "[3]; compared to control", "result": "significantly upregulated"}, {"measurement": "percentage of naïve T-cell population among all T cells in the lymph nodes", "setting": "[3]; compared with the untreated condition", "result": "remained the same"}, {"measurement": "upregulation of the percentage of Tef/em-like cells in the blood", "setting": "[3]; oral, as in Figure 4", "result": "48% ± 1%"}, {"measurement": "naïve T cells (CCR7+CD44-) reduced, mean of up to, of that in the control, in the blood", "setting": "[3]; [4]", "result": "32% ± 6%"}, {"measurement": "naïve T cells (CCR7+CD44-) reduced, of that in the control, in the spleen", "setting": "[3]; [4]", "result": "38% ± 12%"}]}]}
